{
  "source": "patent US20060264460A1",
  "about": "(Wyeth, priority 2005, published 2006)",
  "data": [
    {"molecular_target": "T1, human Cot/Tpl2 kinase (Homo sapiens, UniProt P41279)", "T1 construct": "human Cot/Tpl2 kinase construct encoding residues 30-398; 6His (N); made in house; host or cells: Sf9 insect cells, baculovirus system (BD Biosciences)", "T1 sequence (P41279 30-398)": "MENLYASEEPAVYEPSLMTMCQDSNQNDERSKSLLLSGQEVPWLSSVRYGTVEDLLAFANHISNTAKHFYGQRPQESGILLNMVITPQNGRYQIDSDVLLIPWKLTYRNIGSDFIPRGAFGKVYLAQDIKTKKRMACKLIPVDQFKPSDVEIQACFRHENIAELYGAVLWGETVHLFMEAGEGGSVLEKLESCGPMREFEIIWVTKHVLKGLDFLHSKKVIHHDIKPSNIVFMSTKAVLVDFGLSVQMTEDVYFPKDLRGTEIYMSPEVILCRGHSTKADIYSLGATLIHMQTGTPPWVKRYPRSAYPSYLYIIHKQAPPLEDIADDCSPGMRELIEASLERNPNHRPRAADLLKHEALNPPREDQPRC", "experiment": "Tpl2/Cot kinase assay: GST-MEK1 phosphorylation detected by ELISA (DELFIA Eu)", "type": "biochemical", "conditions": "0.4 nM Tpl2, 35 nM GST-MEK1, 50 uM ATP, 1 h at 30° C.", "how_it_was_run": "(§1)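 His-tagged human Tpl2 from Sf9 cells, Ni-affinity and size-exclusion purified (monomer). 0.4 nM Tpl2 with 35 nM GST-MEK1, 50 uM ATP, MOPS pH 7.2, 1% DMSO, 1 h at 30° C; EDTA stop. MEK1 Ser217/221 phosphorylation detected by anti-phospho-MEK1 and Eu-labelled secondary ELISA; IC50 fitted.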", "units": {"IC50": "nM"}, "values": [
      {"compound": "N#Cc1cnc2c(Cl)cc(NCC3=NCCN3)cc2c1Nc1ccc(F)c(Cl)c1", "note": "[Example 204, 8-chloro-4-[(3-chloro-4-fluorophenyl)amino]-6-[(4,5-dihydro-1H-imidazol-2-ylmethyl)amino]quinoline-3-carbonitrile]", "IC50": 2600},
      {"compound": "N#Cc1cnc2c(C(F)(F)F)cc(NCc3cccnc3)cc2c1Nc1ccc(F)c(Cl)c1", "note": "[Example 230, 4-[(3-chloro-4-fluorophenyl)amino]-6-[(pyridin-3-ylmethyl)amino]-8-(trifluoromethyl)quinoline-3-carbonitrile]", "IC50": "> 40000"},
      {"compound": "N#Cc1cnc2ccc(NCc3ccc(S(=O)(=O)N4CCOCC4)cc3)cc2c1Nc1ccc(F)c(Cl)c1", "note": "[Example 120, 6-(4-(morpholinosulfonyl)benzylamino)-4-(3-chloro-4-fluorophenylamino)quinoline-3-carbonitrile]", "IC50": 24},
      {"compound": "Cc1cc2ncc(C#N)c(Nc3ccc(F)c(Cl)c3)c2cc1NCCN1CCOCC1", "note": "[Example 227, 4-[(3-chloro-4-fluorophenyl)amino]-7-methyl-6-[(2-morpholin-4-ylethyl)amino]quinoline-3-carbonitrile]", "IC50": "> 40000"},
      {"compound": "CSc1ncc(CNc2cc(Cl)c3ncc(C#N)c(Nc4ccc(F)c(Cl)c4)c3c2)cn1", "note": "[Example 281, 8-Chloro-4-[(3-chloro-4-fluorophenyl)amino]-6-({[2-(methylthio)pyrimidin-5-yl]methyl]amino)quinoline-3-carbonitrile]", "IC50": 42},
      {"compound": "N#Cc1cnc2ccc(NCc3ccc(S(N)(=O)=O)cc3)cc2c1NC1CCCCCC1", "note": "[Example 250, 4-({[3-cyano-4-(cycloheptylamino)quinolin-6-yl]amino}methyl)benzenesulfonamide]", "IC50": 6800},
      {"compound": "COC(=O)c1nc[nH]c1CNc1cc(Br)c2ncc(C#N)c(Nc3ccc(F)c(Cl)c3)c2c1", "note": "[Example 110, Methyl 5-((8-bromo-4-(3-chloro-4-fluorophenylamino)-3-cyanoquinolin-6-ylamino)methyl)-1H-imidazole-4-carboxylate]", "IC50": 87},
      {"compound": "CC(C)N1CCCC(n2cc(CNc3cc(Cl)c4ncc(C#N)c(Nc5ccc(F)c(Cl)c5)c4c3)nn2)CC1", "note": "(centres unmarked) [Example 331, 8-chloro-4-[(3-chloro-4-fluorophenyl)amino]-6-({[1-(1-isopropylazepan-4-yl)-1H-1,2,3-triazol-4-yl]methyl}amino)quinoline-3-carbonitrile]", "IC50": 8.2},
      {"compound": "N#Cc1cnc2c(Cl)cc(NCc3ccc(S(N)(=O)=O)cc3)cc2c1Nc1ccc(F)c(Cl)c1", "note": "[Example 186, 4-((8-chloro-4-(3-chloro-4-fluorophenylamino)-3-cyanoquinolin-6-ylamino)methyl)benzenesulfonamide]", "IC50": 45},
      {"compound": "N#Cc1cnc2c(Br)cc(NCc3[nH]cnc3C(F)(F)F)cc2c1Nc1ccc(F)c(Cl)c1", "note": "[Example 114, 8-bromo-4-(3-chloro-4-fluorophenylamino)-6-((4-(trifluoromethyl)-1H-imidazol-5-yl)methylamino)quinoline-3-carbonitrile]", "IC50": 310},
      {"compound": "N#Cc1cnc2ccc(NCc3cccc([N+](=O)[O-])c3)cc2c1Nc1ccc(F)c(Cl)c1", "note": "[Example 6, 4-(3-Chloro-4-fluoro-phenylamino)-6-(3-nitro-benzylamino)-quinoline-3-carbonitrile]", "IC50": 200},
      {"compound": "N#Cc1cnc2ccc(NCc3ccccc3O)cc2c1Nc1ccc(F)c(Cl)c1", "note": "[Example 55, 4-(3-Chloro-4-fluoro-phenylamino)-6-(2-hydroxy-benzylamino)-quinoline-3-carbonitrile]", "IC50": 1800}
    ]},
    {"molecular_target": "T1, human Cot/Tpl2 kinase", "experiment": "Tpl2/Cot kinase assay: GST-MEK1 phosphorylation detected by ELISA (DELFIA Eu)", "type": "biochemical", "conditions": "Table 2; Tpl2/Cot kinase, GST-MEK1 substrate, 50 uM ATP", "how_it_was_run": "as §1", "units": {"IC50": "nM"}, "values": [
      {"compound": "N#Cc1cnc2c(Br)cc(NCc3cn(CCO)nn3)cc2c1Nc1ccc(F)c(Cl)c1", "note": "[Example 510]", "IC50": 28},
      {"compound": "N#Cc1cnc2c(Br)cc(NCc3cn(CCCN4CCNCC4)nn3)cc2c1Nc1ccc(F)c(Cl)c1", "note": "[Example 596]", "IC50": 110},
      {"compound": "CCN1CCC(Cn2cc(CNc3cc(Br)c4ncc(C#N)c(Nc5ccc(F)c(Cl)c5)c4c3)nn2)CC1", "note": "[Example 566]", "IC50": 40},
      {"compound": "N#Cc1cnc2c(Cl)cc(NCc3cn(CCCN4CCCCC4)nn3)cc2c1Nc1ccc(F)c(Cl)c1", "note": "[Example 539]", "IC50": 1.1},
      {"compound": "N#Cc1cnc2ccc(NCCN3CCOCC3)cc2c1NC1CCN(Cc2ccccc2)CC1", "note": "[Example 367]", "IC50": "> 40000"},
      {"compound": "Cc1[nH]c(C2CCCC2)nc1CNc1cc(Cl)c2ncc(C#N)c(Nc3ccc(F)c(Cl)c3)c2c1", "note": "[Example 441]", "IC50": 1900},
      {"compound": "N#Cc1cnc2c(Br)cc(NCc3cccnc3)cc2c1Nc1cccc(Cl)c1", "note": "[Example 374]", "IC50": 36},
      {"compound": "COC(=O)c1cccc(CNc2ccc3ncc(C#N)c(Nc4ccc(F)c(Cl)c4)c3c2)c1", "note": "[Example 397]", "IC50": 320},
      {"compound": "N#Cc1cnc2ccc(Br)cc2c1Nc1ccc(Oc2ccccc2)cc1", "note": "[Example 336]", "IC50": 1000},
      {"compound": "N#Cc1cnc2c(Br)cc(NCCN3CCOCC3)cc2c1Nc1cccc(Cl)c1", "note": "[Example 372]", "IC50": 420},
      {"compound": "N#Cc1cnc2c(Cl)cc(NC3CCCC3Cl)cc2c1Nc1ccc(F)c(Cl)c1", "note": "(centres unmarked) [Example 628]", "IC50": "> 3000"},
      {"compound": "N#Cc1cnc2ccc(NCCN3CCOCC3)cc2c1Nc1ccc(F)c(Cl)c1", "note": "[Example 337]", "IC50": 1000}
    ]},
    {"molecular_target": "T1, human Cot/Tpl2 kinase", "experiment": "Tpl2/Cot kinase assay: GST-MEK1 phosphorylation detected by ELISA (DELFIA Eu)", "type": "biochemical", "conditions": "Tpl2/Cot kinase, GST-MEK1 substrate, 50 uM ATP", "how_it_was_run": "as §1", "units": {"IC50": "nM"}, "values": [
      {"compound": "CS(=O)(=O)Cn1cc(CNc2cc(Br)c3ncc(C#N)c(Nc4ccc(F)c(Cl)c4)c3c2)nn1", "note": "[Example 704]", "IC50": 33},
      {"compound": "CN1CCC(CCn2cc(CNc3cc(Cl)c4ncc(C#N)c(Nc5ccc(F)c(Cl)c5)c4c3)nn2)CC1", "note": "[Example 696]", "IC50": 1.7},
      {"compound": "N#Cc1cnc2c(Cl)cc(NCC3CCN(C(=O)c4cccnc4)CC3)cc2c1Nc1ccc(F)c(Cl)c1", "note": "[Example 850]", "IC50": 130},
      {"compound": "N#Cc1cnc2c(Cl)cc(NCCNC(=O)Cc3cccnc3)cc2c1Nc1ccc(F)c(Cl)c1", "note": "[Example 862]", "IC50": "> 3000"},
      {"compound": "CC(C)(C)OC(=O)N1CCCC1Cn1cc(CNc2cc(Br)c3ncc(C#N)c(Nc4ccc(F)c(Cl)c4)c3c2)nn1", "note": "(centres unmarked) [Example 717]", "IC50": 270},
      {"compound": "N#Cc1cnc2c(Cl)cc(NCc3cn(CC(=O)Nc4cccnc4)nn3)cc2c1Nc1ccc(F)c(Cl)c1", "note": "[Example 821]", "IC50": 2.7},
      {"compound": "N#Cc1cnc2c(Cl)cc(NCc3cn(CC4CCCNC4)nn3)cc2c1Nc1ccc(F)c(Cl)c1", "note": "(centres unmarked) [Example 719]", "IC50": 48},
      {"compound": "N#Cc1cnc2c(Cl)cc(NCc3cn(CCCN4CCCNCC4)nn3)cc2c1Nc1ccc(F)c(Cl)c1", "note": "[Example 767]", "IC50": 74},
      {"compound": "CC(=O)N1CCCCC1CNc1cc(Cl)c2ncc(C#N)c(Nc3ccc(F)c(Cl)c3)c2c1", "note": "(centres unmarked) [Example 875]", "IC50": 620}
    ]},
    {"molecular_target": "T1, human Cot/Tpl2 kinase", "experiment": "Tpl2/Cot kinase assay: GST-MEK1 phosphorylation detected by ELISA (DELFIA Eu)", "type": "biochemical", "conditions": "Tpl2/Cot kinase, GST-MEK1 substrate, 50 uM ATP, 1 h at 30° C.; Table 2", "how_it_was_run": "as §1", "units": {"IC50": "nM"}, "values": [
      {"compound": "CCN1CCC(O)(c2cncc(CNc3cc(Cl)c4ncc(C#N)c(Nc5ccc(F)c(Cl)c5)c4c3)c2)CC1", "note": "[Example 1034]", "IC50": 400},
      {"compound": "CN(C)CCCc1csc(CNc2cc(Cl)c3ncc(C#N)c(Nc4ccc(F)c(Cl)c4)c3c2)c1", "note": "[Example 1022]", "IC50": 980},
      {"compound": "CN(C)CCn1cc(CNc2ccc3ncc(C#N)c(NC4CCCCC4)c3c2)nn1", "note": "[Example 969]", "IC50": 380},
      {"compound": "C[C@H](CNc1ccccn1)Nc1cc(Cl)c2ncc(C#N)c(Nc3ccc(F)c(Cl)c3)c2c1", "note": "[Example 933]", "IC50": 1990},
      {"compound": "CN1CCCC1CCn1cc(CNc2cc(Cl)c3ncc(C#N)c(NC4CCC5(CCCCC5)CC4)c3c2)nn1", "note": "(centres unmarked) [Example 971]", "IC50": "> 3000"},
      {"compound": "N#Cc1cnc2c(Cl)cc(NCc3cn(CCc4cccnc4)nn3)cc2c1Nc1ccc(F)c(Cl)c1", "note": "[Example 1020]", "IC50": 130},
      {"compound": "CN1CCCC1CCn1cc(CNc2cc(Cl)c3ncc(C#N)c(NC4CCCCCC4)c3c2)nn1", "note": "(centres unmarked) [Example 947]", "IC50": 700},
      {"compound": "N#Cc1cnc2c(Cl)cc(NCc3cn(C4CCCN(C5CCC5)CC4)nn3)cc2c1Nc1ccc(F)c(Cl)c1", "note": "(centres unmarked) [Example 1030]", "IC50": 12}
    ]}
  ]
}
